From patent US10308607B2, “Fucosidase inhibitors” (HORIZON ORPHAN LLC, priority 2015, dated 2019)

Tests used:
HepG2 cells [1] = experiment: Metabolic labeling with tagged-fucose, flow cytometry; assay type: cell-based, human; conditions: for Mean Green Fluorescence (GRN-HLog): HepG2, 24 hours compound then 48 hours fucose alkyne, Alexa Fluor 488 Azide; for Fold over vehicle: mean green fluorescence, HepG2
Procedure: Perturbations in glycoprotein metabolism were assayed by growing HepG2 cells without fucosidase inhibitors, or with compound II, III, or IV (see Example 2) for 24 hours, and then adding (3S,4R,5R,6S)-6-ethynyltetrahydro-2H-pyran-2,3,4,5-tetrayl tetra acetate, a per-acetylated analog of fucose containing an alkyne moiety in place of the 5′-methyl group (Click-iT™ Fucose Alkyne, Molecular Probes, Eugene, Oreg.) for an additional 48 hours. Cells were fixed, permeabilized, washed, and stained with Alexa Fluor 488 Azide to orthogonally label glycoproteins incorporating the fucose analog. Cells were then analyzed for fluorescence using a Guava 6HT-2L flow cytometer (ThermoFisher).

rhFUCA1 = rhFUCA1 (Homo sapiens (Human), UniProt P04066); experiment: In vitro fucosidase inhibition (4MU-FUC fluorescence); assay type: biochemical; conditions: 1 ng/mL rhFUCA1, 640 nM 4MU-FUC, pH 4.5, 37° C., 30 minutes
Chain of rhFUCA1 (P04066 32-466): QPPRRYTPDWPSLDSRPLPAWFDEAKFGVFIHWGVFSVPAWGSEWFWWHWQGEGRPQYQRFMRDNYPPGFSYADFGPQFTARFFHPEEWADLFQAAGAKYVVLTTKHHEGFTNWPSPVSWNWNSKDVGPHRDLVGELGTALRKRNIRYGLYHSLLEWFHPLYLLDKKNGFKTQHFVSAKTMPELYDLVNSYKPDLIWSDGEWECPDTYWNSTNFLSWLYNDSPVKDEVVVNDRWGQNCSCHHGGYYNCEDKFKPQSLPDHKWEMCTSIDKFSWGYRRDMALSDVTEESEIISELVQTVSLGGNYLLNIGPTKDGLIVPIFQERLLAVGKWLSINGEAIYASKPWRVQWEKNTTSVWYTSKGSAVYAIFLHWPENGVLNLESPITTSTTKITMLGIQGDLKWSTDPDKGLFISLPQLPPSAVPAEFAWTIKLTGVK
Procedure: Fucosidase inhibition was assessed by preparing a reaction mixture of 50 mM phosphate-citrate pH 4.5, 5 mM MgCl2, 640 nM 4-methylumbelliferyl-alpha-L-fucopyranoside (4MU-FUC), 1 ng/mL rhFUCA1 (R&D Systems), and compound II, III, or IV:
Reactions (100 μL) were incubated at 37° C. for 30 minutes and then quenched with the same volume of 600 mM citrate-carbonate buffer, pH 9. Fluorescence was measured by excitation at 360 nm and emission at 450 nm.

HepG2 cells [2] = experiment: Cytotoxicity in HepG2 cells (XTT assay); assay type: cell-based, human; conditions: HepG2, 24 or 48 hours, compared to compound II
Procedure: To assess the compounds' cytotoxicity in cells, HepG2 cells were seeded in triplicate in 96-well plates at 1.5e4 cells/well in Minimum Essential Media, 10% FBS and 2 mM L-glutamine. Plated cells were allowed to recover for 48 hours. Medium was then replaced with the same media containing dilutions of compound II or IV (see Example 2), incubated for 24 or 48 hours, and subjected to XTT assay to measure viability (ATCC).

fucosidase = conditions: Li et al. 2008; cited from earlier work

IC50 (rhFUCA1)	SMILES	Mean Green Fluorescence (GRN-HLog) (HepG2 cells [1])	Fold over vehicle (HepG2 cells [1])	cytotoxicity (XTT viability) (HepG2 cells [2])	potency of fucosidase inhibition (fucosidase)
59 nM	O=C(NC[C@@H]1N[C@@H](CF)[C@@H](O)[C@@H](O)[C@@H]1O)c1cccc2c1C(=O)c1ccccc1-2 [Compound III]	1220	0.43		
1500 nM	C[C@@H]1N/C(=C\C(=O)Nc2cccc3c2C(=O)c2ccccc2-3)[C@@H](O)[C@H](O)[C@@H]1O [Compound IV]	12900	4.56	reduced cytotoxicity at higher inhibitor concentrations compared to compound II	
	CCCCN1C[C@H](O)[C@@H](O)[C@H](O)[C@H](C(=O)O)C1 [Faz, (3R,4R,5S,6S)-1-butyl-4,5,6-trihydroxyazepane-3-carboxylic acid]				low nanomolar range
